Experiments:
[1] = system: PC-3 prostate cancer cells; test: Cell proliferation assay (trypan blue viable cell count) and IC50 determination; assay type: cell-based, human; conditions: PC-3 cells; for IC50: Homo sapiens, viable cells after 48 hours, read-out: IC50 for cell growth inhibition; for concentration from which statistically significant cell growth inhibition started: 48 hours
Method: All new synthesized compounds and Etoposide were first dissolved in 100% DMSO at initial concentration of 100 mM, and then diluted at final concentration of 200 uM in culture medium. Commercial form of Avastin (25 mg/ml) was diluted to appropriate concentrations in culture medium.
(§1) Hormone-independent and metastatic PC-3 prostate cancer cells were purchased from the American Type Culture Collection (Manassas, Va., USA) and cultured in RPMI-1640 supplemented with 10% fetal bovine serum. Etoposide was purchased from Sigma, Avastin from Roche.
For cell counting a total of 6×10^4 cells at a density of 0.3×10^6/ml were seeded in 96-well plate. The cells were treated with compounds, Etoposide or Avastin as positive controls at 1 uM, 5 uM, 10 uM, 20 uM, 50 uM, 100 uM for 48 hours. For Avastin 5 uM, 20 uM and 50 uM concentrations were used. The cells were labeled with trypan blue and the viable cells were quantified.

[2] = system: PC-3 prostate cancer cells; test: Annexin V-apoptosis assay; assay type: cell-based, human; conditions: 48 hours; for apoptotic cell number versus control and Etoposide: 50 uM and 100 uM
Method: as §1
Cells were treated with 50 uM and 100 uM compounds and Etoposide for 48 hours, harvested, washed with PBS and resuspended in binding buffer (0.01 M HEPES pH 7.4, 0.14 M NaCl, […] CaCl2) (BD Bioscience, san Jose, Calif., USA), stained with […] annexin V and 7-AAD (BD Bioscience). The cells were incubated for 15 min at room temperature in the dark, and the rate of apoptosis was measured by flow cytometry (Calibur, BD) and analyzed using FCS Express Professional software (De NoVo software, CA, USA).

[3] = system: PC-3 prostate cancer cells; test: Cell cycle analysis; assay type: cell-based, human; conditions: for G2/M phase blockage: 50 uM and 100 uM, analogue 3 statement at 100 uM
Method: as §1
Cells were harvested after the treatment, then fixed in ice-cold 70% EtOH. Cells then were washed with PBS and incubated in DNA staining buffer, containing 1 mg/ml sodium citrate (Sigma), 0.1 mg/ml propidium iodide (Sigma), 3 ul/ml TritonX-100, 0.02 mg/ml RNaseA (Sigma) for 30 min at 4° C. The cell cycle profiles were measured in a FACS Calibur cytofluorometer (BD) and analyzed using FCS Express Professional (De NoVo software, CA, USA) and Multicycle (Phoenix Flow Systems, Inc., CA, USA) softwares.

PC-3 tumors = test: PC-3 prostate cancer xenograft mouse model of tumor growth and metastasis; assay type: in vivo, athymic NMRI nude mice; conditions: tumors about 250 mm3, IV once every other day for 14 days; Etoposide 20 mg/kg, Substance X 40 mg/kg (FIG. 4)
Text: Athymic NMRI nude mice between 6-8 weeks old (Taconic; Bomholt, Denmark) were used. Prostate cancer xenograft mouse model was created by implanting hormone-independent PC3 tumor cells subcutaneously into athymic nude mice as previously described (Wegiel B, Bjartell A, Tuomela J, et al.: Multiple cellular mechanisms related to cyclin Al in prostate cancer invasion and metastasis. Journal of the National Cancer Institute 100: 10221036, 2008).
PC-3 cells were purchased from American Type Culture Collection (Manassas, V A) and cultured in RPMI-1640 supplemented with 10% Fetal Bovine Serum. PC-3 cells at 1×10^6/per mouse were used. The mice were divided into three groups (6 mice per group). The first group allowed tumors to grow between 170-400 mm^3 in size before starting the treatment. The second group allowed tumors to grow between 550-650 mm^3 in size before starting the treatment. The third group allowed tumors to grow between 700-800 mm^3 in size before starting the treatment. The tumor diameters were measured twice weekly using calipers. The tumor volumes were calculated using an equation of a*(b2/2) where a and b represent the length and width of the tumor, respectively.
The treatment of the compound of Example 1 (also referred to herein as “Substance X”) or PBS containing 5% DMSO (vehicle) as Control was started when tumors reached the desired size as described above. In the first experimental setting, Substance X was administered intravenously once every other day. In the second experimental setting, Substance X was administrated orally once every other day. Tumor growth was assessed periodically as described in Results. The mice were sacrificed after treatment by euthanization via isofluorene inhalation. Lymph node, liver, lung, spleen and femurs were removed from each mouse. Half of the tumor tissues were used for histology and immunohistochemical analysis. For histology analysis, tissues were fixed in 4% paraformaldehyde and embedded in paraffin. The sections were stained with hematoxylineosin (H&E) or imunohistochemical stained with antibodies and analyzed under an optical microscope. The other half of the tissues were used for protein analysis and thus were snapfrozen in liquid nitrogen. The body weights of the mice on the first and last day of the treatment were collected and compared. Tumor invasion and metastasis were examined in various tissues from the sacrificed mice.
For a comparison study, mice with tumors at 190-250 mm^3 in size were treated with the cytotoxic drug Etoposide (Sigma) at a dose of 20 mg/kg via IV injection once every other day. The tumor size was measured as described in the Results. Three mice were treated with Etoposide or the vehicle as Control. The mice were sacrificed and the tissues were collected as described above.

Structure (SMILES)	IC50 [1]	apoptotic cell number versus control and Etoposide [2]	Early apoptosis, % ([2]; 50 uM)	Late apoptosis/necrosis, % ([2]; 50 uM)	Total, % (apoptosis) ([2]; 50 uM)	Early apoptosis, % ([2]; 100 uM)	Late apoptosis/necrosis, % ([2]; 100 uM)	Total, % (apoptosis) ([2]; 100 uM)	G0/G1, % ([3]; 50 uM)	S + G2 + M, % ([3]; 50 uM)	G2/M phase blockage [3]	G0/G1, % ([3]; 100 uM)	S + G2 + M, % ([3]; 100 uM)	concentration from which statistically significant cell growth inhibition started [1]	effect on PC-3 cell number ([1]; 48 hours (FIG. 12))	tumor growth, comparison of Etoposide and Substance X (PC-3 tumors)
CN1CC(=O)N2[C@H](c3c[nH]c4ccc(Cl)cc34)c3cc4c(cc3C[C@H]2C1=O)OCO4 [Analogue 1, (2S,8S)-2-(5-chloro-1H-indol-3-yl)-6-methyl-13,15-dioxa-3,6-diazatetracyclo-[8.7.0.0^3,8.0^12,16]heptadeca-1(10),11,16-triene-4,7-dione]	36 µM	increasing in both early and late apoptotic cell number	10.98%	4.23%	15.21%	16.83%	8.29%	25.12%	63.26%	36.74%	not	60.44%	39.56%	–	–	–
COc1ccc2[nH]cc([C@@H]3c4cc5c(cc4C[C@H]4C(=O)N(C)CC(=O)N34)OCO5)c2c1 [Analogue 2, (2S,8S)-2-(5-methoxy-1H-indol-3-yl)-6-methyl-13,15-dioxa-3,6-diazatetracyclo[8.7.0.0^3,8.0^12,16]heptadeca-1(10),11,16-triene-4,7-dione]	60 µM	–	–	–	–	–	–	–	–	–	–	–	–	5 µM	–	–
CN1CC(=O)N2[C@H](c3c[nH]c4c3ccc3ccccc34)c3cc4c(cc3C[C@H]2C1=O)OCO4 [Analogue 3, (2S,8S)-6-methyl-2-{1H-naphtho[1,2-b]pyrrol-3-yl}-13,15-dioxa-3,6-diazatetracyclo[8.7.0.0^3,8.0^12,16]heptadeca-1(10),11,16-triene-4,7-dione]	32 µM	increasing in both early and late apoptotic cell number	15.21%	6.55%	21.76%	17.51%	5.52%	23.03%	67.52%	32.48%	–	51.77%	48.23%	5 µM	–	–
CN1CC(=O)N2[C@H](c3cn(C)c4ccccc34)c3cc4c(cc3C[C@H]2C1=O)OCO4 [Analogue 4, (2S,8S)-6-methyl-2-(1-methyl-1H-indol-3-yl)-13,15-dioxa-3,6-diazatetracyclo-[8.7.0.0^3,8.0^12,16]heptadeca-1(10),11,16-triene-4,7-dione]	30 µM	–	–	–	–	–	–	–	–	–	–	–	–	10 µM	–	–
CN1CC(=O)N2[C@H](c3cn(Cc4ccccc4)c4ccccc34)c3cc4c(cc3C[C@H]2C1=O)OCO4 [Analogue 5, (2S,8S)-2-(1-benzyl-1H-indol-3-yl)-6-methyl-13,15-dioxa-3,6-diazatetracyclo-[8.7.0.0^3,8.0^12,16]heptadeca-1(10),11,16-triene-4,7-dione]	–	–	–	–	–	–	–	–	–	–	–	–	–	–	resulted in cell reduction	–
COc1cc([C@@H]2c3cc4c(cc3[C@@H](O[C@@H]3O[C@@H]5CO[C@@H](C)O[C@H]5[C@H](O)[C@H]3O)[C@H]3COC(=O)[C@H]23)OCO4)cc(OC)c1O [Etoposide, reference compound]	–	–	9.22%	6.73%	15.95%	9.35%	4.98%	14.33%	15.91%	84.09%	G2/M phase blockage	21.39%	78.61%	–	–	grew slowly
